Assay results from patent US20250049036A1 (priority 2021, published 2025).

How the values were obtained:
Botrytis cinerea [1] = assay: Botrytis cinerea test on tomato, preventive, greenhouse; assay type: in vivo; details: preventive spray on bean/chili plants (heading: tomato), inoculated one day after treatment, read-out: control (efficacy, disease severity) compared to the untreated check
Botrytis cinerea [2] = assay: Botrytis cinerea (gray mold) mycelial radial growth on potato dextrose agar; assay type: cell-based; details: 168 h, 22° C., seven days, read-out: control compared to the untreated check
Protocol: The compounds were dissolved in 0.3% dimethyl sulfoxide and then added to potato dextrose agar medium just prior to dispensing it into petri dishes. 5 mL medium, with the compound in the desired concentration, was dispensed into 60 mm sterile petri-plates. After solidification, each plate was seeded with a 5 mm size mycelial disc taken from the periphery of an actively growing virulent culture plate. The plates were incubated in growth chambers at 22° C. temperature and 90% relative humidity for seven days and the radial growth was measured and compared to the one of the untreated control.

Botrytis cinerea [3] = assay: Botrytis cinerea liq. (BOTRCI) spore growth inhibition in liquid medium, 96-well microtiter plate, OD 405 nm; assay type: cell-based; details: spore suspension in YBA liquid medium, 22° C., 5-6 days, OD at 405 nm, read-out: control compared to the untreated check
Protocol: Yeast bacterial peptone and sodium acetate (YBA) liquid medium containing a BOTRCI (10^4 spores/ml) spore suspension was prepared. For the inhibition assay, each test compound was solved in dimethyl sulfoxide. 100 μl of the test compound in media-solution was added to a 96-well microtiter plate, consequently, the same volume (100 μl) of spore suspension was added to the well making the final test concentrations and the plate was incubated at 22° C. for 5-6 days. The growth inhibition was evaluated by measuring the OD at 405 nm. Percent inhibition was calculated with the below formula:
Where T=treatment, C=control, and B=blank

Parastagonospora nodorum = Parastagonospora nodorum (PARANO) spore growth inhibition in liquid medium, 96-well microtiter plate, OD 600; assay type: cell-based; details: spore suspension in PDB liquid medium, 18° C., 5-6 days, OD at 600, read-out: control compared to the untreated check
How it was run: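 Read-out is percent growth inhibition from OD at 600 after 5-6 days at 18° C. Compounds, dissolved in DMSO, were diluted in potato dextrose broth and combined in equal volume with a 10^5 spores/ml suspension of PARANO.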

Phakopsora pachyrhizi = Phakopsora pachyrhizi test on soybean, preventive, greenhouse; assay type: in vivo; details: preventive spray on soybean, inoculated one day after treatment, read-out: control (efficacy, disease severity) compared to the untreated check
How it was run: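 Greenhouse-grown young soybean plants were sprayed with compound (2% DMSO/acetone, emulsifier in water) at the stated rate. One day later they were inoculated with 2×10^5 P. pachyrhizi inoculum and held at 22-24 °C, 80-90% relative humidity for disease development.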

Phytophthora infestans [4] = assay: whole plant or invertebrate; assay type: in vivo, Phytophthora infestans on tomato; details: in Solanum lycopersicum, read-out: control (efficacy, disease severity) compared to the untreated check
Pyricularia oryzae = assay: microbe, parasite or virus in culture; assay type: cell-based; details: 168 h, read-out: control compared to the untreated check
Colletotrichum capsici = Colletotrichum capsici (anthracnose) mycelial radial growth on potato dextrose agar; assay type: cell-based; details: Colletotrichum truncatum, 168 h, 25° C., seven days, read-out: control compared to the untreated check
How it was run: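 Compounds in 0.3% DMSO were mixed into potato dextrose agar, and each plate was seeded with a 5 mm mycelial disc from an actively growing culture. Plates were incubated at 25° C and 60% relative humidity for seven days. Radial growth was compared with untreated control.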

Phytophthora infestans [5] = assay: microbe, parasite or virus in culture; assay type: cell-based; details: 168 h, read-out: control compared to the untreated check
Venturia Inequalis = assay: Venturia inequalis (VENTIN) spore growth inhibition in liquid medium, 96-well microtiter plate, OD 600; assay type: cell-based; details: spore suspension in PDB liquid medium, 18° C., 15-18 days, OD at 600, read-out: control compared to the untreated check
Protocol: Potato dextrose (PDB) liquid medium containing a VENTIN (10^5 spores/ml) spore suspension was prepared. For the inhibition assay, each test compound was solved in dimethyl sulfoxide. 100 μl of the test compound in media-solution was added to a 96-well microtiter plate, consequently, the same volume (100 μl) of spore suspension was added to the well making the final test concentrations and the treated plate was incubated at 18° C. for 15-18 days. The growth inhibition was evaluated by measuring the OD at 600. Percent inhibition was calculated with the below formula: […]

CC(C)(C#N)NC(=O)c1cnc2ccsc2c1 [Compound 106, N-(2-cyanopropan-2-yl)thieno[3,2-b] pyridine-6-carboxamide]
≥ 70%: pest or weed control at 500 ppm (Botrytis cinerea [1]) | inhibition of growth at 300 ppm (Botrytis cinerea [2]) | inhibition of growth at 300 ppm (Botrytis cinerea [3]) | inhibition of growth at 300 ppm (Parastagonospora nodorum) | pest or weed control at 500 ppm (Phakopsora pachyrhizi)

Cn1ccc2cc(C(=O)NC(C)(C)Cc3cccc(Br)c3)cnc21 [Compound 48, N-(1-(3-bromophenyl)-2-methylpropan-2-yl)-1-methyl-1H-pyrrolo[2,3-b]pyridine-5-carboxamide]
≥ 70%: pest or weed control at 500 ppm (Phytophthora infestans [4]) | inhibition of growth at 300 ppm (Parastagonospora nodorum) | inhibition of growth at 300 ppm (Pyricularia oryzae) | pest or weed control at 500 ppm (Phakopsora pachyrhizi)

COc1nc2c(cc1C(=O)NC1(c3ccccc3)CC1)CCC2 [Compound 252, 2-methoxy-N-(1-phenylcyclopropyl)-6,7-dihydro-5H-cyclopenta[b]pyridine-3-carboxamide]
≥ 70%: inhibition of growth at 300 ppm (Colletotrichum capsici) | inhibition of growth at 300 ppm (Botrytis cinerea [2]) | inhibition of growth at 300 ppm (Botrytis cinerea [3]) | inhibition of growth at 300 ppm (Parastagonospora nodorum) | inhibition of growth at 300 ppm (Phytophthora infestans [5])

CC(C)CC(C)(Cc1ccccc1)NC(=O)c1cnc2c(c1)c(C1CC1)cn2C (stereo not drawn) [Compound 55, 3-cyclopropyl-N-(2,4-dimethyl-1-phenylpentan-2-yl)-1-methyl-1H-pyrrolo[2,3-b]pyridine-5-carboxamide]
≥ 70%: pest or weed control at 500 ppm (Botrytis cinerea [1]) | inhibition of growth at 300 ppm (Botrytis cinerea [2]) | inhibition of growth at 300 ppm (Botrytis cinerea [3])

CC(C)(COC(=O)c1ccccc1C(F)(F)F)NC(=O)c1cnc2ccsc2c1 [Compound 161, 2-methyl-2-(thieno[3,2-b]pyridine-6-carboxamido)propyl 2-(trifluoromethyl)benzoate]
≥ 70%: inhibition of growth at 300 ppm (Venturia Inequalis) | inhibition of growth at 300 ppm (Pyricularia oryzae)

Cn1ccc2cc(C(=O)NC(C)(C)COCc3ccccc3F)cnc21 [Compound 187, N-(1-((2-fluorobenzyl)oxy)-2-methylpropan-2-yl)-1-methyl-1H-pyrrolo[2,3-b]pyridine-5-carboxamide]
≥ 70%: inhibition of growth at 300 ppm (Colletotrichum capsici) | inhibition of growth at 300 ppm (Botrytis cinerea [2]) | inhibition of growth at 300 ppm (Botrytis cinerea [3]) | inhibition of growth at 300 ppm (Parastagonospora nodorum)

CC(C)(COC(=O)c1cccc(F)c1)NC(=O)c1cnc2c(c1)CCC2 [Compound 145, 2-(6,7-dihydro-5H-cyclopenta[b]pyridine-3-carboxamido)-2-methylpropyl 3-fluorobenzoate]
≥ 70%: pest or weed control at 500 ppm (Phytophthora infestans [4])

Cc1nc2c(ccn2C)cc1C(=O)NC(C)(C)Cc1ccccc1F [Compound 38, N-(1-(2-fluorophenyl)-2-methylpropan-2-yl)-1,6-dimethyl-1H-pyrrolo[2,3-b]pyridine-5-carboxamide]
≥ 70%: pest or weed control at 500 ppm (Botrytis cinerea [1]) | pest or weed control at 500 ppm (Phytophthora infestans [4]) | inhibition of growth at 300 ppm (Pyricularia oryzae) | pest or weed control at 500 ppm (Phakopsora pachyrhizi)

C=C(C)CC(C)(COc1ccccc1F)NC(=O)c1cnc2c(c1)CCC2 (stereo not drawn) [Compound 160, N-(1-(2-fluorophenoxy)-2,4-dimethylpent-4-en-2-yl)-6,7-dihydro-5H-cyclopenta[b]pyridine-3-carboxamide]
≥ 70%: inhibition of growth at 300 ppm (Colletotrichum capsici) | inhibition of growth at 300 ppm (Botrytis cinerea [2]) | inhibition of growth at 300 ppm (Venturia Inequalis) | inhibition of growth at 300 ppm (Parastagonospora nodorum)

CC(c1ccccc1Cl)C(C)(C)NC(=O)c1cnc2c(c1)c(F)cn2C (stereo not drawn) [Compound 71, N-(3-(2-chlorophenyl)-2-methylbutan-2-yl)-3-fluoro-1-methyl-1H-pyrrolo[2,3-b]pyridine-5-carboxamide]
≥ 70%: pest or weed control at 500 ppm (Phytophthora infestans [4]) | inhibition of growth at 300 ppm (Pyricularia oryzae) | pest or weed control at 500 ppm (Phakopsora pachyrhizi)

COc1ccccc1CC(C)(C)NC(=O)c1cnc2c(ccn2C)c1 [Compound 49, N-(1-(2-methoxyphenyl)-2-methylpropan-2-yl)-1-methyl-1H-pyrrolo[2,3-b]pyridine-5-carboxamide]
≥ 70%: inhibition of growth at 300 ppm (Venturia Inequalis) | pest or weed control at 500 ppm (Phakopsora pachyrhizi)

Cc1cc2cc(C(=O)NC(C)(C)C(C)(C)c3ccccc3)cnc2n1C [Compound 100, N-(2,3-dimethyl-3-phenylbutan-2-yl)-1,2-dimethyl-1H-pyrrolo[2,3-b]pyridine-5-carboxamide]
≥ 70%: pest or weed control at 500 ppm (Botrytis cinerea [1]) | inhibition of growth at 300 ppm (Botrytis cinerea [2]) | inhibition of growth at 300 ppm (Botrytis cinerea [3]) | inhibition of growth at 300 ppm (Parastagonospora nodorum) | inhibition of growth at 300 ppm (Pyricularia oryzae)

Cn1ccc2cc(C(=O)NC(C)(C)COC(=O)c3ccccc3C(F)(F)F)cnc21 [Compound 167, 2-methyl-2-(1-methyl-1H-pyrrolo[2,3-b]pyridine-5-carboxamido)propyl 2-(trifluoromethyl)benzoate]
≥ 70%: inhibition of growth at 300 ppm (Venturia Inequalis)

CC(C)(COC(=O)c1cccc(F)c1)NC(=O)c1cnc2[nH]ccc2c1 [Compound 146, 2-methyl-2-(1H-pyrrolo[2,3-b]pyridine-5-carboxamido)propyl 3-fluorobenzoate]
≥ 70%: inhibition of growth at 300 ppm (Venturia Inequalis) | inhibition of growth at 300 ppm (Phytophthora infestans [5]) | pest or weed control at 500 ppm (Phakopsora pachyrhizi)

Cn1ccc2cc(C(=O)NC(C)(C)Cc3ccc(Cl)c(F)c3)cnc21 [Compound 42, N-(1-(4-chloro-3-fluorophenyl)-2-methylpropan-2-yl)-1-methyl-1H-pyrrolo[2,3-b]pyridine-5-carboxamide]
≥ 70%: pest or weed control at 500 ppm (Phytophthora infestans [4]) | inhibition of growth at 300 ppm (Parastagonospora nodorum) | inhibition of growth at 300 ppm (Pyricularia oryzae) | pest or weed control at 500 ppm (Phakopsora pachyrhizi)

CC(C)(COCc1ccccc1F)NC(=O)c1cnc2c(c1)CCC2 [Compound 190, N-(1-((2-fluorobenzyl)oxy)-2-methylpropan-2-yl)-6,7-dihydro-5H-cyclopenta[b]pyridine-3-carboxamide]
≥ 70%: inhibition of growth at 300 ppm (Colletotrichum capsici) | inhibition of growth at 300 ppm (Botrytis cinerea [2]) | inhibition of growth at 300 ppm (Botrytis cinerea [3]) | inhibition of growth at 300 ppm (Parastagonospora nodorum)

CC(C)(NC(=O)c1cnc2ccsc2c1)C(O)Cc1ccccc1 (stereo not drawn) [Compound 105, N-(3-hydroxy-2-methyl-4-phenylbutan-2-yl)thieno[3,2-b] pyridine-6-carboxamide]
≥ 70%: inhibition of growth at 300 ppm (Botrytis cinerea [2]) | inhibition of growth at 300 ppm (Botrytis cinerea [3]) | inhibition of growth at 300 ppm (Parastagonospora nodorum) | inhibition of growth at 300 ppm (Phytophthora infestans [5])

CC(C)CC(C)(Cc1ccccc1)NC(=O)c1cnc2[nH]c(=O)oc2c1 (stereo not drawn) [Compound 98, N-(2,4-dimethyl-1-phenylpentan-2-yl)-2-oxo-2,3-dihydrooxazolo[4,5-b] pyridine-6-carboxamide]
≥ 70%: pest or weed control at 500 ppm (Botrytis cinerea [1]) | inhibition of growth at 300 ppm (Botrytis cinerea [2]) | inhibition of growth at 300 ppm (Botrytis cinerea [3]) | inhibition of growth at 300 ppm (Phytophthora infestans [5]) | inhibition of growth at 300 ppm (Pyricularia oryzae)
